From PubChem BioAssay (NCI)
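Each compound was tested at five concentrations against cells in 96-well plates for 48 hours. Abbreviation: GI50, concentration required for 50% inhibition of growth. TGI: concentration producing complete growth inhibition.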

What was measured:
Test in all cases: NCI anticancer screen, dose series, 48 h
[1] = tested on: OVCAR-8 ovarian
[2] = tested on: K-562 leukemia
[3] = tested on: SNB-19 CNS
[4] = tested on: OVCAR-4 ovarian
[5] = tested on: LOX IMVI melanoma
[6] = tested on: SW-620 colon
[7] = tested on: HOP-92 NSCLC
[8] = tested on: NCI/ADR-RES ovarian
[9] = tested on: A549 NSCLC
[10] = tested on: SF-295 CNS
[11] = tested on: UACC-62 melanoma
[12] = tested on: SK-MEL-5 melanoma
[13] = tested on: HL-60(TB) leukemia
[14] = tested on: TK-10 renal
[15] = tested on: A498 renal
[16] = tested on: SF-268 CNS
[17] = tested on: RXF 393 renal
[18] = tested on: SR leukemia
[19] = tested on: KM12 colon
[20] = tested on: U251 CNS
[21] = tested on: SK-MEL-28 melanoma
[22] = tested on: CAKI-1 renal
[23] = tested on: MALME-3M melanoma
[24] = tested on: HT29 colon
[25] = tested on: MDA-MB-435
[26] = tested on: HCT-15 colon
[27] = tested on: NCI-H522 lung
[28] = tested on: CCRF-CEM leukemia
[29] = tested on: M14 melanoma
[30] = tested on: NCI-H460 lung
[31] = tested on: IGROV1 ovarian
[32] = tested on: RPMI-8226 leukemia
[33] = tested on: OVCAR-3 ovarian
[34] = tested on: OVCAR-5 ovarian
[35] = tested on: NCI-H226 lung
[36] = tested on: HS 578T breast
[37] = tested on: COLO 205 colon
[38] = tested on: MOLT-4 leukemia
[39] = tested on: EKVX NSCLC
[40] = tested on: ACHN renal
[41] = tested on: HCC-2998 colon
[42] = tested on: SN12C renal
[43] = tested on: SF-539 CNS
[44] = tested on: T-47D breast
[45] = tested on: 786-0 renal
[46] = tested on: UACC-257 melanoma
[47] = tested on: HOP-62 NSCLC
[48] = tested on: MCF7 breast
[49] = tested on: UO-31 renal
[50] = tested on: NCI-H23 lung
[51] = tested on: HCT-116 colon
[52] = tested on: MDA-MB-231 breast
[53] = tested on: SK-OV-3 ovarian
[54] = tested on: BT-549 breast
[55] = tested on: DU-145 prostate
[56] = tested on: PC-3 prostate
[57] = tested on: SK-MEL-2 melanoma
[58] = tested on: SNB-75 CNS

COC1OC(C)/C(=N/O)C2OC(C)(C)OC12 (stereo not given)
TGI [1]: > 100 µM | TGI [2]: > 100 µM | TGI [3]: > 100 µM | TGI [4]: > 100 µM | TGI [5]: > 100 µM | TGI [6]: > 100 µM | TGI [7]: > 100 µM | TGI [8]: > 100 µM | TGI [9]: > 100 µM | TGI [10]: > 100 µM | TGI [11]: > 100 µM | TGI [12]: > 100 µM | TGI [13]: > 100 µM | TGI [14]: > 100 µM | TGI [15]: > 100 µM | TGI [16]: > 100 µM | TGI [17]: > 100 µM | TGI [18]: > 100 µM | TGI [19]: > 100 µM | TGI [20]: > 100 µM | TGI [21]: > 100 µM | TGI [22]: > 100 µM | TGI [23]: > 100 µM | TGI [24]: > 100 µM | TGI [25]: > 100 µM | TGI [26]: > 100 µM | TGI [27]: > 100 µM | TGI [28]: > 100 µM | TGI [29]: > 100 µM | TGI [30]: > 100 µM | TGI [31]: > 100 µM | TGI [32]: > 100 µM | TGI [33]: > 100 µM | TGI [34]: > 100 µM | TGI [35]: > 100 µM | TGI [36]: > 100 µM | TGI [37]: > 100 µM | TGI [38]: > 100 µM | TGI [39]: > 100 µM | TGI [40]: > 100 µM | TGI [41]: > 100 µM | TGI [42]: > 100 µM | TGI [43]: > 100 µM | TGI [44]: > 100 µM | TGI [45]: > 100 µM | TGI [46]: > 100 µM | TGI [47]: > 100 µM | TGI [48]: > 100 µM | TGI [49]: > 100 µM | TGI [50]: > 100 µM | TGI [51]: > 100 µM | TGI [52]: > 100 µM | TGI [53]: > 100 µM | TGI [54]: > 100 µM | TGI [55]: > 100 µM | TGI [56]: > 100 µM

OC[C@H]1N[C@H](CO)[C@@H](O)[C@H]1O
TGI [1]: > 100 µM | TGI [2]: > 100 µM | TGI [3]: > 100 µM | TGI [5]: > 100 µM | TGI [6]: > 100 µM | TGI [8]: > 100 µM | TGI [9]: > 100 µM | TGI [10]: > 100 µM | TGI [11]: > 100 µM | TGI [12]: > 100 µM | TGI [13]: > 100 µM | TGI [14]: > 100 µM | TGI [15]: > 100 µM | TGI [16]: > 100 µM | TGI [17]: > 100 µM | TGI [18]: > 100 µM | TGI [19]: > 100 µM | TGI [57]: > 100 µM | TGI [20]: > 100 µM | TGI [21]: > 100 µM | TGI [22]: > 100 µM | TGI [23]: > 100 µM | TGI [24]: > 100 µM | TGI [25]: > 100 µM | TGI [26]: > 100 µM | TGI [27]: > 100 µM | TGI [28]: > 100 µM | TGI [58]: > 100 µM | TGI [29]: > 100 µM | TGI [31]: > 100 µM | TGI [32]: > 100 µM | TGI [34]: > 100 µM | TGI [35]: > 100 µM | TGI [36]: > 100 µM | TGI [37]: > 100 µM | TGI [38]: > 100 µM | TGI [39]: > 100 µM | TGI [40]: > 100 µM | TGI [41]: > 100 µM | TGI [42]: > 100 µM | TGI [43]: > 100 µM | TGI [44]: > 100 µM | TGI [45]: > 100 µM | TGI [46]: > 100 µM | TGI [47]: > 100 µM | TGI [48]: > 100 µM | TGI [49]: > 100 µM | TGI [50]: > 100 µM | TGI [51]: > 100 µM | TGI [52]: > 100 µM | TGI [53]: > 100 µM | TGI [54]: > 100 µM | TGI [55]: > 100 µM | TGI [56]: > 100 µM

O=C(NCc1cn(Cc2cccc(Oc3ccccc3)c2)nn1)c1cccnc1NCc1ccc(Cl)cc1
GI50 [1]: 3.63 µM | TGI [1]: > 100 µM | GI50 [2]: 3.24 µM | TGI [2]: > 100 µM | GI50 [3]: 3.91 µM | TGI [3]: > 100 µM | GI50 [4]: 3.37 µM | TGI [4]: > 100 µM | GI50 [5]: 3.9 µM | TGI [5]: > 100 µM | GI50 [6]: 4.04 µM | TGI [6]: > 100 µM | GI50 [8]: 2.86 µM | TGI [8]: > 100 µM | GI50 [9]: 3.21 µM | TGI [9]: > 100 µM | GI50 [11]: 2.08 µM | TGI [11]: 6.92 µM | GI50 [12]: 2.53 µM | TGI [12]: 7.4 µM | GI50 [13]: 3.39 µM | TGI [13]: 8.07 µM | GI50 [14]: 3.7 µM | TGI [14]: 49.1 µM | GI50 [15]: 2.12 µM | TGI [15]: 7.95 µM | GI50 [16]: 4.82 µM | TGI [16]: > 100 µM | GI50 [17]: 2.19 µM | TGI [17]: 7.81 µM | GI50 [18]: 3.31 µM | TGI [18]: > 100 µM | GI50 [19]: 3.62 µM | TGI [19]: > 100 µM | GI50 [57]: 4.44 µM | TGI [57]: > 100 µM | GI50 [20]: 2.66 µM | TGI [20]: 8.7 µM | GI50 [21]: 2.95 µM | TGI [21]: > 100 µM | GI50 [22]: 4.36 µM | TGI [22]: > 100 µM | GI50 [23]: 5.69 µM | TGI [23]: > 100 µM | GI50 [24]: 2.96 µM | TGI [24]: 7.56 µM | GI50 [25]: 2.33 µM | TGI [25]: 7.37 µM | GI50 [26]: 3.39 µM | TGI [26]: > 100 µM | GI50 [27]: 2.18 µM | TGI [27]: 5.68 µM | GI50 [28]: 3.05 µM | TGI [28]: > 100 µM | GI50 [58]: 2.02 µM | TGI [58]: 7.77 µM | GI50 [29]: 2.49 µM | TGI [29]: 5.7 µM | GI50 [30]: 2.85 µM | TGI [30]: 7.83 µM | GI50 [31]: 9.03 µM | TGI [31]: > 100 µM | GI50 [32]: 3.12 µM | TGI [32]: > 100 µM | GI50 [33]: 3.48 µM | TGI [33]: 9.55 µM | GI50 [34]: 5.62 µM | TGI [34]: > 100 µM | GI50 [35]: 4.23 µM | TGI [35]: > 100 µM | GI50 [36]: 2.72 µM | TGI [36]: > 100 µM | GI50 [37]: 2.18 µM | TGI [37]: 4.04 µM | GI50 [38]: 3.28 µM | TGI [38]: 8.76 µM | GI50 [39]: 3.65 µM | TGI [39]: > 100 µM | GI50 [40]: 4.03 µM | TGI [40]: > 100 µM | GI50 [41]: 4.17 µM | TGI [41]: 28.1 µM | GI50 [42]: 3.44 µM | TGI [42]: > 100 µM | GI50 [43]: 2.24 µM | TGI [43]: 5.17 µM | GI50 [44]: 3.2 µM | TGI [44]: 42.9 µM | GI50 [46]: 3.83 µM | TGI [46]: > 100 µM | GI50 [47]: 5.69 µM | TGI [47]: > 100 µM | GI50 [48]: 2.99 µM | TGI [48]: > 100 µM | GI50 [49]: 3 µM | TGI [49]: > 100 µM | GI50 [50]: 3.66 µM | TGI [50]: > 100 µM | GI50 [51]: 3.18 µM | TGI [51]: 9.4 µM | GI50 [52]: 2.29 µM | TGI [52]: 6.14 µM | GI50 [53]: 3.32 µM | TGI [53]: 69.2 µM | GI50 [54]: 2.72 µM | TGI [54]: 7.63 µM | GI50 [55]: 4 µM | TGI [55]: > 100 µM | GI50 [56]: 2.96 µM | TGI [56]: > 100 µM
